Measured values taken from patent publication US20170112877A1, “NON-TOXIC AGENT FOR A BROAD-SPECTRUM, BACTERICIDAL OR BACTERIOSTATIC TREATMENT OF ANTIBIOTIC-RESISTANT BACTERIA IN ANIMALS” (LIVELEAF, INC., priority 2015, published 2017).

Tests used:
E. coli [1] = test: Antibacterial activity against E. coli in Muller-Hinton broth; type: cell-based; design: key: “+” means positive identification of bacterial growth; details: compound or extract alone, head 1%, 24 hours at 37° C.
Excerpt: (§1) The testing methods used follow the procedures set-forth by the Clinical and Laboratory Standards Institute (CLSI) and US Pharmacopeia.
(§2) E. coli was chosen as the bacteria to challenge the antibacterial activity of the bound compositions and the free hydrogen peroxide. A range of E. coli concentrations, ranging from 10-10^6 CFU/ml were used for the study. […]
(§3) Table 2 compares the antibacterial activities of each of the model compounds and extracts alone, without the formation of the bound compositions: gallic acid (a model polyphenol building block), tannic acid (a model polyphenol), pomegranate husk extract, and green tea extract were each used to challenge the E. coli alone. […]

[2] = Amount of hydrogen peroxide bound to model compounds or extracts in dry form (peroxide test strip); type: physicochemical
Excerpt: Art-recognized procedures, such as those set-forth at least in U.S. Pat. Nos. 3,860,694; 3,864,454; 4,171,280; and 4,966,762, were used as a guide for this study. […] As discussed, one of skill will appreciate that hydrogen peroxide in a free form, for example, would otherwise quickly degrade. The polyphenols were provided from model compounds or plant extracts. A dry form of the compositions was made between (i) gallic acid (a model polyphenol building block from Sigma-Aldrich) and hydrogen peroxide; (ii) tannic acid (a model polyphenol component from Sigma-Aldrich) and hydrogen peroxide; (iii) pomegranate husk extract and hydrogen peroxide; and, (iv) green tea extract and hydrogen peroxide, using the procedures taught herein, including: • i. adding a solution of 35% hydrogen peroxide slowly into each of the gallic acid powder, tannic powder, pomegranate husk extract powder, or green tea extract powder. […] The hydrogen peroxide concentration measurements were taken using standard methods to determine the amount of hydrogen peroxide that bound to the model compounds or extracts in the dry form.

E. coli [3] = test: Antibacterial activity against E. coli in Muller-Hinton broth; type: cell-based; details: 100 ppm, 24 hours at 37° C.
Excerpt: as §1, §2, §3

E. coli [4] = test: as above; type: cell-based; design: key: “+” means identifiable bacterial growth.; “−” means no bacterial growth; details: 100 ppm, 24 hours at 37° C.
Excerpt: as §1, §2, §3

E. coli [5] = test: Stability of hydrogen peroxide in aqueous solution, bound compositions vs free hydrogen peroxide, challenged with E. coli; type: physicochemical; details: for hydrogen peroxide concentration: 125 ppm extract + 125 ppm H2O2 (1:1), E. coli 10^6 CFU/ml
Excerpt: This method tests the stability of the hydrogen peroxide in the combination. The testing methods used follow the standard procedures set-forth by the Clinical and Laboratory Standards Institute (CLSI) and US Pharmacopeia. • i. E. coli was chosen as the bacteria to challenge the stability of the bound compositions and the free hydrogen peroxide. • ii. The hydrogen peroxide concentration was matched to the selected bacteria in order to form a useful curve representing hydrogen peroxide degradation over time for the samples. […] FIG. 2A compares stabilities of free hydrogen peroxide to hydrogen peroxide bound to each of: gallic acid (a model polyphenol building block), tannic acid (a model polyphenol), pomegranate husk extract, green tea extract, and Blessed thistle extract. […] John's wort, Valerian, Apple, Grape, Echinacea purpurea, Grape seed extract, and Blueberry. In both FIGS. 2A and 2B, there are curves that cannot be identified well individually, as they are identical and overlapping. […]

| Structure (SMILES) | bacterial growth (E. coli [1]; E coli 10 CFU/ml) | bacterial growth (E. coli [1]; E coli 10^2 CFU/ml) | bacterial growth (E. coli [1]; E coli 10^3 CFU/ml) | bacterial growth (E. coli [1]; E coli 10^4 CFU/ml) | bacterial growth (E. coli [1]; E coli 10^5 CFU/ml) | bacterial growth (E. coli [1]; E coli 10^6 CFU/ml) | hydrogen peroxide bound, by total dry wt [2] | fate of E. coli, all concentrations (E. coli [3]) | bacterial growth (E. coli [4]; E coli 10^2 CFU/ml) | bacterial growth (E. coli [4]; E coli 10^3 CFU/ml) | bacterial growth (E. coli [4]; E coli 10^4 CFU/ml) | bacterial growth (E. coli [4]; E coli 10^5 CFU/ml) | hydrogen peroxide concentration (E. coli [5]; 0 Hours) | hydrogen peroxide concentration (E. coli [5]; 4 Hours) | hydrogen peroxide concentration (E. coli [5]; 8 Hours) | hydrogen peroxide concentration (E. coli [5]; 12 Hours) | hydrogen peroxide concentration (E. coli [5]; 16 Hours) | hydrogen peroxide concentration (E. coli [5]; 20 Hours) | hydrogen peroxide concentration (E. coli [5]; 24 Hours) | hydrogen peroxide concentration after degradation (E. coli [5]; within about the first 8 hours) |
| --- | --- | --- | --- | --- | --- | --- | --- | --- | --- | --- | --- | --- | --- | --- | --- | --- | --- | --- | --- | --- |
| O=C(O)c1cc(O)c(O)c(O)c1 [Gallic Acid, gallic acid] | + | + | + | + | + | + | about 3.0% |  |  |  |  |  |  |  |  |  |  |  |  |  |
| OO [H2O2, hydrogen peroxide] |  |  |  |  |  |  |  | managed to survive | + | + | + | + | 125 ppm | 15 ppm | 0 ppm | 0 ppm | 0 ppm | 0 ppm | 0 ppm | ~0.0 ppm |
| O=C(OC[C@H]1O[C@@H](OC(=O)c2cc(O)c(O)c(OC(=O)c3cc(O)c(O)c(O)c3)c2)[C@H](OC(=O)c2cc(O)c(O)c(OC(=O)c3cc(O)c(O)c(O)c3)c2)[C@@H](OC(=O)c2cc(O)c(O)c(OC(=O)c3cc(O)c(O)c(O)c3)c2)[C@@H]1OC(=O)c1cc(O)c(O)c(OC(=O)c2cc(O)c(O)c(O)c2)c1)c1cc(O)c(O)c(OC(=O)c2cc(O)c(O)c(O)c2)c1 [Tannic Acid, tannic acid] | + | + | + | + | + | + | about 2.5% |  |  |  |  |  |  |  |  |  |  |  |  |  |
